Test [1] deals with T1, Polyunsaturated fatty acid 5-lipoxygenase (Rattus norvegicus) (UniProt P12527).
T1 sequence (whole entry): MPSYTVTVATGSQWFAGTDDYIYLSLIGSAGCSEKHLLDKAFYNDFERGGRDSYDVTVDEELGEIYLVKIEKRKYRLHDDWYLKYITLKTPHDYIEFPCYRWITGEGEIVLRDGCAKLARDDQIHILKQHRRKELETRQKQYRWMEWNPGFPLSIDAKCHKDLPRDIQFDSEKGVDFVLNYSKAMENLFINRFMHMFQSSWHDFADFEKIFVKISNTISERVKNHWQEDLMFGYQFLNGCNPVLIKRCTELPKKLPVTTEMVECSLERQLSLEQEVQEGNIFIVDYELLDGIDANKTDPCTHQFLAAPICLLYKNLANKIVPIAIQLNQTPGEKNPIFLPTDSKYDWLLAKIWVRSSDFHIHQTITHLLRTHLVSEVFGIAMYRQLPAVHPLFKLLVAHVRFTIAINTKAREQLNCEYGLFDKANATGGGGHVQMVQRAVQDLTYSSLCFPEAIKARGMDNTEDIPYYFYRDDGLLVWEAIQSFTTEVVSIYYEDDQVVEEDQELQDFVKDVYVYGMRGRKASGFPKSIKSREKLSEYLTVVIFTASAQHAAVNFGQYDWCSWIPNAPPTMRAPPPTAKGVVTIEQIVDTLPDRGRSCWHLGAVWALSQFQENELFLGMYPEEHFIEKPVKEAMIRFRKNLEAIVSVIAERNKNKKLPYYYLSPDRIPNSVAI
The test can be described thus: Inhibitory activity against 5-lipoxygenase (5-LO) using broken rat […] leukemia cells (RBL-1) at 10 uM. Type of test: cell-based.

Test [2] has as its target Cyclooxygenase (Rattus norvegicus) (UniProt P35355+Q63921). The test can be described thus: Inhibitory activity against Cyclooxygenase (COX) using broken rat […] leukemia cells (RBL-1) at 10 uM. The test is classed as cell-based.
Test [3] deals with T2, Cyclooxygenase (Rattus norvegicus, UniProt P35355+Q63921).
T2 sequence (P35355 whole entry): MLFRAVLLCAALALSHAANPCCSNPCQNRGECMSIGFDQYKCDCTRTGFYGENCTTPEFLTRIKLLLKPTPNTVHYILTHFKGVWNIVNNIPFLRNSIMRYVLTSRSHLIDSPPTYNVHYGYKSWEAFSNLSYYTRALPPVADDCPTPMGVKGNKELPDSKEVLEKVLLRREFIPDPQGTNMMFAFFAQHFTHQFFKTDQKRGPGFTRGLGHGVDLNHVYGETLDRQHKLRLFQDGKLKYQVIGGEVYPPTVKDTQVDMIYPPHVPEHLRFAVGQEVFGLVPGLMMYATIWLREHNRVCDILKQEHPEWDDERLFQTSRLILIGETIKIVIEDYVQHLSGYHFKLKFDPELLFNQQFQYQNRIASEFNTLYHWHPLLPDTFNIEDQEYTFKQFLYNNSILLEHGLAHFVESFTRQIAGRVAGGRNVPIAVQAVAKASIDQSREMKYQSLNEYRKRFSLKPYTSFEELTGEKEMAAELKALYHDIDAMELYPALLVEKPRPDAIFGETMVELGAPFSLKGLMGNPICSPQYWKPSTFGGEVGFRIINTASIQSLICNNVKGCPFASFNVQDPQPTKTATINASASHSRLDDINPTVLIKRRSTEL
T2 sequence (Q63921 whole entry): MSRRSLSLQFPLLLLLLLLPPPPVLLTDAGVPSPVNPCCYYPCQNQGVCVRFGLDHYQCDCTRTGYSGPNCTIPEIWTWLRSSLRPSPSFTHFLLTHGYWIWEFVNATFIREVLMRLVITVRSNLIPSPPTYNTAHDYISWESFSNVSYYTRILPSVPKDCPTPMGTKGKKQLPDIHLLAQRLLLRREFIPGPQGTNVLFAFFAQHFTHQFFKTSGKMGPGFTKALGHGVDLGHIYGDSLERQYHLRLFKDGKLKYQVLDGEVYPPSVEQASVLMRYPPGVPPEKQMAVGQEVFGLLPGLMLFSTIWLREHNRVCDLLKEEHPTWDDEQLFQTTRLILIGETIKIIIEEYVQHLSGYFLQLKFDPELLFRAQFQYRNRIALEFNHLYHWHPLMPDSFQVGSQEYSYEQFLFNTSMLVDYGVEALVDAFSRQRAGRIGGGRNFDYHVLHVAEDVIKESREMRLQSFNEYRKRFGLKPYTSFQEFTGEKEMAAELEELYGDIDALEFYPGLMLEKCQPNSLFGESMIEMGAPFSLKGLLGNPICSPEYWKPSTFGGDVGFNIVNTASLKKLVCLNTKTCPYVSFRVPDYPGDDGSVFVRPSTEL
Briefly: Inhibitory activity against cyclooxygenase (COX) in intact rat […] leukemia cells (RBL-1). The test is classed as cell-based.

The target in test [4] is T3, Prostaglandin G/H synthase 1 (Ovis aries) (UniProt P05979).
T3 sequence (whole entry): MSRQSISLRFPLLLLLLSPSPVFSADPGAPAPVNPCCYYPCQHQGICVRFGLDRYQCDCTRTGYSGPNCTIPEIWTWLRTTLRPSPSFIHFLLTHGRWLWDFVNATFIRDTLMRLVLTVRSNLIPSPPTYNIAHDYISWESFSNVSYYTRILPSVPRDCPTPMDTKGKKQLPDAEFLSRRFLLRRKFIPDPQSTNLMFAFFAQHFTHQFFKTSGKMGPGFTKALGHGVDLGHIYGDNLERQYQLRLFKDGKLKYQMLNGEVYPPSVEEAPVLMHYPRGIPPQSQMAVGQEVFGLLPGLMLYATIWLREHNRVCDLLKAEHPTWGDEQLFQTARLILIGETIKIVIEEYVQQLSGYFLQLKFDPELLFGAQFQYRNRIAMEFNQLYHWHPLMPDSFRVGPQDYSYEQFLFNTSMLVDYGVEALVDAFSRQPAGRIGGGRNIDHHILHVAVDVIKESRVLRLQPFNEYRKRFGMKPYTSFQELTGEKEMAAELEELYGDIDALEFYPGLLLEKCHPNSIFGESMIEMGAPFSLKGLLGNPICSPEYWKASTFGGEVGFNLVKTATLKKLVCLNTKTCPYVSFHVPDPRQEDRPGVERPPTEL
The test can be described thus: Inhibitory activity against Cyclooxygenase using sheep seminal vesicle (SSV) enzyme (COX-1) at 10 uM. Type of test: tissue-based.

Test [5] deals with T3, Prostaglandin G/H synthase 1 (Ovis aries). Briefly: Inhibitory activity against Cyclooxygenase using sheep seminal vesicle (SSV) enzyme (COX-1)at 10 uM. The test is classed as tissue-based.
Test [6] addresses T1, Polyunsaturated fatty acid 5-lipoxygenase (Rattus norvegicus). The test can be described thus: Inhibitory activity against 5-lipoxygenase (5-LO) using broken rat […] leukemia cells (RBL-1)at 10 uM. The test is classed as cell-based.
Test [7] has as its target T4, Polyunsaturated fatty acid 5-lipoxygenase (Rattus norvegicus, UniProt P12527).
T4 sequence (P12527 whole entry): T1 sequence (whole entry)
Briefly: Inhibitory activity against 5-lipoxygenase (5-LO) using broken rat […] leukemia cells (RBL-1). The test is classed as cell-based.

Test [8] has as its target T2, Cyclooxygenase. Briefly: Inhibitory activity against Cyclooxygenase (COX) using broken rat […] leukemia cells (RBL-1). Type of test: cell-based.

Experimental findings from ChEMBL document CHEMBL1131670, “N-hydroxyurea and hydroxamic acid inhibitors of cyclooxygenase and 5-lipoxygenase” (Bioorg Med Chem Lett, 1999) are described below.

Molecules are shown by their SMILES. pIC50: −log10 of the molar value.

As to `COc1ccc(-n2nc(C#CC(C)N(O)C(=O)c3cccnc3)cc2-c2ccc(C)cc2)cc1` (stereo not given), the inhibition (usually the percentage by which the read-out fell short of the control) in test [1] was found to be 88%; in test [2], 54%. Also, on Cyclooxygenase [3], the IC50 (commonly the concentration that inhibits the measured activity by half) is 11.5 µM.

With `CCOC(=O)CCC(=O)N(O)C(C)C#Cc1cc(-c2ccc(CC)cc2)n(-c2ccc(OC)cc2)n1` (stereo not given), the inhibition was 97% in test [1], 52% in test [2] and 3% in test [4]. Besides, the IC50 at Cyclooxygenase [3] was 14 µM.

As to `COc1ccc(-n2nc(C#CC(C)N(O)C(=O)N3CCCCC3)cc2-c2ccc(Cl)cc2)cc1` (stereo not given), the inhibition was determined as 44% in test [5] and 76% in test [6].

As for `CCC(C#Cc1cc(-c2ccc(Cl)cc2)n(-c2ccc(OC)cc2)n1)N(O)C(N)=O` (stereo not given), the IC50 against Cyclooxygenase [3] worked out at 70.4 µM. Further, the inhibition worked out at 0% in test [5] and 91% in test [6].

For the molecule `COc1ccc(-n2nc(CCC(=O)N(C)O)cc2-c2ccc(Cl)cc2)cc1` [TEPOXALIN], the pIC50 – broadly, the negative decadic logarithm of the IC50, by convention in mol/L – in test [7] was 5.77. Moreover, the IC50 against Cyclooxygenase [8] was determined as 4.2 µM; at Cyclooxygenase [3], 2.85 µM.

Consider `CCCNC(=O)N(O)C(C)C#Cc1cc(-c2ccc(Cl)cc2)n(-c2ccc(OC)cc2)n1` (stereo not given), for which the inhibition was determined as 14% in test [5] and 82% in test [6].

Regarding `COc1ccc(-n2nc(C#CC(C)N(O)C(N)=O)cc2-c2ccc(C)cc2)cc1` (stereo not given), the IC50 at Cyclooxygenase [8] turned out to be 9.4 µM; against Cyclooxygenase [3], 1.4 µM. In test [5], this molecule had an inhibition of 10%.
